Data as given in patent US10196403B2, “Compounds and compositions and uses thereof” (Sunovion Pharmaceuticals Inc., priority 2016, dated 2019).

Tested on: mice
Test: Neuropharmacological Assay (SmartCube)
Format: in vivo
Settings: for minimal effective dose: Mus musculus, MED = dose having 50% or more total activity in SmartCube, read-out: POTENCY (minimal effective dose, MED); for AD: ADHD (SmartCube probability) / AG: analgesic (SmartCube probability) / AX: anxiolytic (SmartCube probability) / CE: cognitive enhancer (SmartCube probability) / DP: anti-depressant (SmartCube probability) / MS: mood stabilizer (SmartCube probability) / PS: anti-psychotic (SmartCube probability) / SD: sedative hypnotic (SmartCube probability) / UN: uncharacterized CNS activity (SmartCube probability): mice, i.p. 15 min before test, most efficacious dose(s) of 3 doses
Summary of the method: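 Compounds in NMP/PEG/propylene glycol given i.p. 15 min before automated video-based behavioral testing, at 3 doses; behavioral signature compared with a reference-compound database to give probability per drug class, reported at most efficacious dose. MED = dose (mpk) giving ≥50% total activity; doses typically 0.3–30 mpk.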

Structure (SMILES) | minimal effective dose [mg/kg] | AD: ADHD (SmartCube probability) | AG: analgesic (SmartCube probability) | AX: anxiolytic (SmartCube probability) | CE: cognitive enhancer (SmartCube probability) | DP: anti-depressant (SmartCube probability) | MS: mood stabilizer (SmartCube probability) | PS: anti-psychotic (SmartCube probability) | SD: sedative hypnotic (SmartCube probability) | UN: uncharacterized CNS activity (SmartCube probability)
CNC[C@H]1OCC(F)(F)c2ccccc21 [Example 27, (S)-1-(4,4-difluoroisochroman-1-yl)-N-methylmethanamine] | 10 to 30 | + (LOQ≤ + <5%) | ++ (5%≤ ++ <25%) | ++ (5%≤ ++ <25%) | ++ (5%≤ ++ <25%) | ++ (5%≤ ++ <25%) | + (LOQ≤ + <5%) | + (LOQ≤ + <5%) | + (LOQ≤ + <5%) | +++ (25%≤ +++ <50%)
CNC[C@@H]1OCC(F)(F)c2ccccc21 [Example 28, (R)-1-(4,4-difluoroisochroman-1-yl)-N-methylmethanamine] | < 3 | + (LOQ≤ + <5%) | ++ (5%≤ ++ <25%) | ++ (5%≤ ++ <25%) | ++ (5%≤ ++ <25%) | ++ (5%≤ ++ <25%) | + (LOQ≤ + <5%) | +++ (25%≤ +++ <50%) | ++ (5%≤ ++ <25%) | +++ (25%≤ +++ <50%)
NC[C@@H]1OCCc2c(F)cccc21 [Example 29, (R)-(5-fluoroisochroman-1-yl)methanamine] | 3 to 10 | + (LOQ≤ + <5%) | ++ (5%≤ ++ <25%) | ++ (5%≤ ++ <25%) | ++ (5%≤ ++ <25%) | ++++ (50%≤ ++++) | + (LOQ≤ + <5%) | + (LOQ≤ + <5%) | + (LOQ≤ + <5%) | ++ (5%≤ ++ <25%)
CNC[C@H]1OCCc2c(F)ccc(F)c21 [Example 30, (S)-1-(5,8-difluoroisochroman-1-yl)-N-methylmethanamine] | 3 to 10 | + (LOQ≤ + <5%) | ++ (5%≤ ++ <25%) | ++ (5%≤ ++ <25%) | ++ (5%≤ ++ <25%) | ++ (5%≤ ++ <25%) | + (LOQ≤ + <5%) | ++ (5%≤ ++ <25%) | ++ (5%≤ ++ <25%) | +++ (25%≤ +++ <50%)
CNC[C@@H]1OCCc2c(F)ccc(F)c21 [Example 31, (R)-1-(5,8-difluoroisochroman-1-yl)-N-methylmethanamine] | < 3 | + (LOQ≤ + <5%) | ++ (5%≤ ++ <25%) | ++ (5%≤ ++ <25%) | ++ (5%≤ ++ <25%) | ++++ (50%≤ ++++) | + (LOQ≤ + <5%) | + (LOQ≤ + <5%) | + (LOQ≤ + <5%) | + (LOQ≤ + <5%)
CNC[C@H]1OCCc2c(Cl)cccc21 [Example 32, (S)-1-(5-chloroisochroman-1-yl)-N-methylmethanamine] | 10 to 30 | + (LOQ≤ + <5%) | + (LOQ≤ + <5%) | ++ (5%≤ ++ <25%) | ++ (5%≤ ++ <25%) | ++ (5%≤ ++ <25%) | + (LOQ≤ + <5%) | ++ (5%≤ ++ <25%) | + (LOQ≤ + <5%) | + (LOQ≤ + <5%)
CNC[C@@H]1OCCc2c(Cl)cccc21 [Example 33, (R)-1-(5-chloroisochroman-1-yl)-N-methylmethanamine] | < 3 | + (LOQ≤ + <5%) | ++ (5%≤ ++ <25%) | ++ (5%≤ ++ <25%) | ++ (5%≤ ++ <25%) | ++++ (50%≤ ++++) | + (LOQ≤ + <5%) | + (LOQ≤ + <5%) | ++ (5%≤ ++ <25%) | +++ (25%≤ +++ <50%)
NC[C@@H]1OCCc2cc(F)ccc21 [Example 34, (R)-(6-fluoroisochroman-1-yl)methanamine] | < 3 | + (LOQ≤ + <5%) | ++ (5%≤ ++ <25%) | ++ (5%≤ ++ <25%) | ++ (5%≤ ++ <25%) | ++ (5%≤ ++ <25%) | ++ (5%≤ ++ <25%) | +++ (25%≤ +++ <50%) | + (LOQ≤ + <5%) | +++ (25%≤ +++ <50%)
NC[C@@H]1OCCc2cccc(F)c21 [Example 35, (R)-(8-fluoroisochroman-1-yl)methanamine] | < 3 | ++ (5%≤ ++ <25%) | ++ (5%≤ ++ <25%) | ++ (5%≤ ++ <25%) | ++ (5%≤ ++ <25%) | ++++ (50%≤ ++++) | + (LOQ≤ + <5%) | ++ (5%≤ ++ <25%) | ++ (5%≤ ++ <25%) | ++++ (50%≤ ++++)
CNC[C@H]1OCCc2cccc(Cl)c21 [Example 36, (S)-1-(8-chloroisochroman-1-yl)-N-methylmethanamine] | 3 to 10 | + (LOQ≤ + <5%) | + (LOQ≤ + <5%) | ++ (5%≤ ++ <25%) | ++ (5%≤ ++ <25%) | + (LOQ≤ + <5%) | + (LOQ≤ + <5%) | ++ (5%≤ ++ <25%) | + (LOQ≤ + <5%) | +++ (25%≤ +++ <50%)
CNC[C@@H]1OCCc2cccc(Cl)c21 [Example 37, (R)-1-(8-chloroisochroman-1-yl)-N-methylmethanamine] | < 3 | + (LOQ≤ + <5%) | ++ (5%≤ ++ <25%) | + (LOQ≤ + <5%) | ++ (5%≤ ++ <25%) | ++ (5%≤ ++ <25%) | + (LOQ≤ + <5%) | ++ (5%≤ ++ <25%) | + (LOQ≤ + <5%) | ++++ (50%≤ ++++)
